# Laboratory results from US20160312309A1 (Millennium Pharmaceuticals, Inc., priority 2008, published 2016).
# Experiments:
# [1] = tested on: relapsed multiple myeloma; test: CREST phase 2 trial (024); assay type: in vivo, human
# Excerpt: (§1) Dexamethasone is a synthetic adrenocorticosteroid, CAS Registry No. 312-93-6, administered as tablets (DECADRON® Merck & Co., Inc.). 024: The CREST phase 2 trial (024) of either relapsed or refractory disease (subjects with first relapse, Jagannath et al. (2004) Br. J. Haematol. 127:165-172). […] 025: The SUMMIT phase 2 trial of patients with relapsed and refractory myeloma (subjects with second or greater relapse and refractory to their last prior therapy, Richardson P G, et al. (2003) N. Engl. J. Med. 348:2609-2617). […] Patients who received dexamethasone were treated for a maximum of 280 days by the following method: received up to four 5-week treatment cycles, followed by up to five 4-week treatment cycles. Within each 5-week treatment cycle, the patient received dexamethasone 40 mg/day PO, once daily on Days 1 to 4, 9 to 12, and 17 to 20 of a 35-day cycle. Within each 4-week treatment cycle, the patient received dexamethasone 40 mg/day PO once daily on Days 1 to 4 of a 28 day cycle. 040: Companion trial to 039 for patients who had more than 3 prior therapies. […] An additional 240 patients not from the −039 study, but who received at least 4 prior therapies also enrolled in this study.
# [2] = tested on: relapsed and refractory myeloma; test: SUMMIT phase 2 trial (025); assay type: in vivo, human; conditions: Study 025, bortezomib alone
# Excerpt: as §1
# [3] = tested on: relapsed or refractory multiple myeloma; test: APEX phase 3 trial (039); assay type: in vivo, human; conditions: for Median duration of response / Median time to response / One-year survival / complete response / complete response plus near-complete response / complete response, number of patients: 039; for response rate (complete plus partial response (CR+PR)): 039, EBMT criteria; for CR + PR + MR, (%) / Complete Response, (%) / Minor Response, (%) / Near CR: IF+, (%) / No Change, (%) / Not Evaluable, (%) / Overall Response Rate (CR + PR), (%) / Partial Response, (%) / Progressive Disease, (%) / SWOG Remission, (%): best confirmed response, N = 627
# Excerpt: as §1
# The following section presents more detailed information on the −039 trial. During the study, disease response was assessed according to the European Group for Blood and Marrow Transplant (EBMT) criteria as presented in Table 4.
# Response and date of disease progression was determined by computer algorithm that integrated data from a central laboratory and case report forms from each clinical site, according to the Blade criteria (Table 4). […] See Richardson et al., supra.
# Disease progression was determined by Blade criteria as described in Table 4 and above. […] The date of progression was determined by computer algorithm. P-value from log-rank test adjusted by actual randomization factors. See Richardson et al., supra.
# [4] = tested on: relapsed multiple myeloma; test: Response in pharmacogenomic portion of the studies; assay type: in vivo, human; conditions: for CR, number of patients / IE, number of patients / MR, number of patients / NC, number of patients / PD, number of patients / PR, number of patients: pharmacogenomic patients, study 039; for CR+PR rate / overall response rate: pharmacogenomic set of patients
# Excerpt: Patient samples and response criteria from patients participating in these studies, as well as the following additional studies described below were sought for use in pharmacogenomic analyses to identify markers associated with patient survival. The samples were derived from the trials as described in Table 3 and in the following paragraphs.
# For those patients who participated in the pharmacogenomic portion of the study, Table 6 summarizes the response rates and Table 7 summarizes the patients evaluated for survival. […]
# [5] = tested on: myeloma cells; conditions: independent of their p53 status; cited from earlier work
# [6] = tested on: xenograft tumor models; conditions: variety of xenograft tumor models; cited from earlier work
# [7] = tested on: nuclear factor-κB (NF-κB) activation; conditions: cited from earlier work
# [8] = tested on: cells that over express B-cell lymphoma 2 (Bcl-2); conditions: cells that over express Bcl-2; cited from earlier work
# [9] = difference in rates, bortezomib vs dexamethasone
# [10] = difference in response rates, bortezomib vs dexamethasone
structure (smiles),measurement,setting,value
"CC(C)C[C@H](NC(=O)[C@H](Cc1ccccc1)NC(=O)c1cnccn1)B(O)O [bortezomib, N (pyrazine)carbonyl-L-phenylalanine-L-leucine boronic acid]",complete response (CR)+partial response (PR) rate,"[1]; Study 024, bortezomib 1.0 mg/m^2",30%
same,complete response (CR)+partial response (PR) rate,"[1]; Study 024, bortezomib 1.3 mg/m^2",38%
same,CR+PR rate,[2],27%
same,overall response rate (CR+PR+minimal response (MR)),[2],35%
same,"CR+PR, number of patients",[2]; of 193 patients,53 patients
same,"overall response (CR+PR+MR), number of patients",[2]; of 193 patients,67 patients
same,Median duration of response,[3],8 months
same,Median time to response,[3],43 days
same,One-year survival,[3],80%
same,complete response,[3],6%
same,complete response plus near-complete response,[3],13%
same,"complete response, number of patients",[3],20 patients
same,response rate (complete plus partial response (CR+PR)),[3],38%
same,"CR + PR + MR, (%)",[3],(46) %
same,"Complete Response, (%)",[3],(6) %
same,"Minor Response, (%)",[3],(8) %
same,"Near CR: IF+, (%)",[3],(7) %
same,"No Change, (%)",[3],(43) %
same,"Not Evaluable, (%)",[3],(3) %
same,"Overall Response Rate (CR + PR), (%)",[3],(38) %
same,"Partial Response, (%)",[3],(32) %
same,"Progressive Disease, (%)",[3],(7) %
same,"SWOG Remission, (%)",[3],(15) %
same,"No Change, Difference",[3]; [9],−0.04
same,"Not Evaluable, Difference",[3]; [9],−0.01
same,"Progressive Disease, Difference",[3]; [9],−0.06
same,"CR + PR + MR, Difference",[3]; [10],0.12
same,"Complete Response, Difference",[3]; [10],0.06
same,"Minor Response, Difference",[3]; [10],−0.09
same,"Near CR: IF+, Difference",[3]; [10],0.06
same,"Overall Response Rate (CR + PR), Difference",[3]; [10],0.20
same,"Partial Response, Difference",[3]; [10],0.15
same,"SWOG Remission, Difference",[3]; [10],0.09
same,decrease in risk of death,"[3]; first year after enrollment, bortezomib group vs dexamethasone",41%
same,"CR, number of patients",[4],5
same,"IE, number of patients",[4],9
same,"MR, number of patients",[4],5
same,"NC, number of patients",[4],19
same,"PD, number of patients",[4],13
same,"PR, number of patients",[4],25
same,CR+PR rate,[4],32%
same,overall response rate,[4],42.3%
same,cytotoxicity to myeloma cells in culture,[5],directly cytotoxic
same,cytotoxic activity in xenograft tumor models,[6],cytotoxic activity
same,NF-κB activation,[7],inhibits
same,apoptosis,[8],induces apoptosis
"C[C@@H]1C[C@H]2[C@@H]3CCC4=CC(=O)C=C[C@]4(C)[C@@]3(F)[C@@H](O)C[C@]2(C)[C@@]1(O)C(=O)CO [dexamethasone, Dexamethasone]",Median duration of response,[3],5.6 months
same,Median time to response,[3],43 days
same,One-year survival,[3],66%
same,complete response,[3],< 1%
same,complete response plus near-complete response,[3],2%
same,"complete response, number of patients",[3],2 patients
same,response rate (complete plus partial response (CR+PR)),[3],18%
same,"CR + PR + MR, (%)",[3],(35) %
same,"Complete Response, (%)",[3],(<1) %
same,"Minor Response, (%)",[3],(17) %
same,"Near CR: IF+, (%)",[3],(<1) %
same,"No Change, (%)",[3],(48) %
same,"Not Evaluable, (%)",[3],(4) %
same,"Overall Response Rate (CR + PR), (%)",[3],(18) %
same,"Partial Response, (%)",[3],(17) %
same,"Progressive Disease, (%)",[3],(13) %
same,"SWOG Remission, (%)",[3],(5) %
same,"CR, number of patients",[4],1
same,"IE, number of patients",[4],6
same,"MR, number of patients",[4],11
same,"NC, number of patients",[4],16
same,"PD, number of patients",[4],22
same,"PR, number of patients",[4],13
same,CR+PR rate,[4],22.2%
same,overall response rate,[4],39.7%
